Test results: BindingDB's records for doi:10.7270/Q2M32T6M (Vanderbilt Screening Center for GPCRs, Ion Channels and …, 2009)

The molecules below were run against T1, Solute carrier family 12 member 5 (Homo sapiens, UniProt Q9H2X9) (assay: concentration-response of KCC2 transport modulators – cell-based, HEK293 KCC2, FluoZin-2 fluorescence, dose response (AID 1736)). Conditions: not given.
T1 sequence (Q9H2X9 whole entry): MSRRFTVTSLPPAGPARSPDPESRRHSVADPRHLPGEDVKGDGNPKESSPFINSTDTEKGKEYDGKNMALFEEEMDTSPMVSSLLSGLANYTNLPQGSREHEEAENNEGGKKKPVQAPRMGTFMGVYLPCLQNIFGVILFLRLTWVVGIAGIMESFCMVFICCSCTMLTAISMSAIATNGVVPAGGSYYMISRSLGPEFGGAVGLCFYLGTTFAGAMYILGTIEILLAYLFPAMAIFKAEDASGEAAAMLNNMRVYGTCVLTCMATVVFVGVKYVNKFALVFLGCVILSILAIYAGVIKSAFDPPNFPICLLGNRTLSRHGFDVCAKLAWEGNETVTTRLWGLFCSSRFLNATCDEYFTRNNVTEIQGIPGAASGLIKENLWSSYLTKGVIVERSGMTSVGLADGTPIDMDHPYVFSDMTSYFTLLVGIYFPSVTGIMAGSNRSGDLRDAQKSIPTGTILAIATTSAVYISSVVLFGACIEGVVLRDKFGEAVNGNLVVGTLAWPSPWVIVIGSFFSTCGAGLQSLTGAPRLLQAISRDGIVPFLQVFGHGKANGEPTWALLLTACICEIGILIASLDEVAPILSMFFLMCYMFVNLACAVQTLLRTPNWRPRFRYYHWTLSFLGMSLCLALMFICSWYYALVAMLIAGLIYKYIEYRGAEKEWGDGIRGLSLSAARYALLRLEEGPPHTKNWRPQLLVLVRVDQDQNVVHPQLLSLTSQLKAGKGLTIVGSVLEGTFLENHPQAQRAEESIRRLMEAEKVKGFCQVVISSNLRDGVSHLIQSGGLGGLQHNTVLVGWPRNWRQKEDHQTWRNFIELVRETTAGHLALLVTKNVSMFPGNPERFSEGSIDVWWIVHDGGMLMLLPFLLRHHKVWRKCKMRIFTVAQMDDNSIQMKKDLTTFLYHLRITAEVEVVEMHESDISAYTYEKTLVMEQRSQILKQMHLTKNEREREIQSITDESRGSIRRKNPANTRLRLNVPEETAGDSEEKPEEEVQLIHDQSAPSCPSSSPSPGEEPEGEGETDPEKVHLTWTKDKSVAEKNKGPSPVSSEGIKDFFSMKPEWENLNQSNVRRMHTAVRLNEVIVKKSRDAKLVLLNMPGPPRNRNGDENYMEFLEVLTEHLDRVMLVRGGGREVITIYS

Question: `Cc1ccc(-c2n[nH]c(=S)n2NC=CCc2ccccc2[N+](=O)[O-])cc1` was tested. Which EC50 did it give?
Answer: The EC50 was 1.28 µM.

Question: With `Cc1[nH]c2ccccc2c1Cc1n[nH]c(=S)n1C` as the molecule, how does the EC50 read?
Answer: Its EC50 is 31.5 µM.

Question: With `COc1cc(C=NN(C)c2ccccc2)ccc1O` as the molecule, how does the EC50 read?
Answer: The EC50 was 2.75 µM.

Question: With `Cc1[nH]c2ccccc2c1Cc1nnc(S)o1` as the molecule, how does the EC50 read?
Answer: Its EC50 is 0.744 µM.

Question: For `O=c1[nH]c2c(s1)C(c1ccccc1)c1c(c(O)n(-c3ccccc3)c1O)S2` (configuration not stated), which EC50 is on record?
Answer: The EC50 was 0.0458 µM.

Question: With `O=C(CSc1ccccc1C(=O)NCc1ccccc1)NC12CC3CC(CC(C3)C1)C2` as the molecule, how does the EC50 read?
Answer: The EC50 was 6.49 µM.

Question: Which EC50 does the source give for `CC(C)N1C(=O)S/C(=C/c2ccccc2OCc2ccc(C(=O)O)cc2)C1=O` here?
Answer: Its EC50 is 2.21 µM.

Question: `CC1CCCCN1C(=O)CSc1nnc(-c2c[nH]c3ccccc23)o1` (configuration not stated) was tested. Which EC50 did it give?
Answer: The EC50 was 15.2 µM.

Question: `NC1=NC[C@@H](Cc2ccc(O)cc2)N1CCc1cc(C(F)(F)F)cc(C(F)(F)F)c1` was tested. Which EC50 did it give?
Answer: Its EC50 is 38.2 µM.

Question: For `O=C1OC(c2ccc(O)cc2)(c2ccc(O)cc2)c2ccccc21`, which EC50 is on record?
Answer: The EC50 was 1.8 µM.

Question: With `O=C(O)c1cc(-c2ccc(F)cc2F)ccc1O` as the molecule, how does the EC50 read?
Answer: Its EC50 is 3.25 µM.

Question: With `CCn1c(=O)n(CC)c2cc(S(=O)(=O)N3CCC(c4ccccc4)CC3)ccc21` [1,3-diethyl-5-(4-phenylpiperidin-1-yl)sulfonyl-benzimidazol-2-one] as the molecule, how does the EC50 read?
Answer: The EC50 was 13.2 µM.

Question: With `O=C(CSc1nnc(C2CC2)n1Cc1ccccc1)c1cc2ccccc2o1` [1-(1-benzofuran-2-yl)-2-[(4-benzyl-5-cyclopropyl-1,2,4-triazol-3-yl)sulfanyl]ethanone] as the molecule, how does the EC50 read?
Answer: Its EC50 is 3.85 µM.

Question: `O=C(CC(C(=O)N1CCc2ccccc21)n1ccnc1)N1CCc2ccccc2C1` (configuration not stated) [1-(2,3-dihydroindol-1-yl)-4-(3,4-dihydro-1H-isoquinolin-2-yl)-2-(1-imidazolyl)butane-1,4-dione] was tested. Which EC50 did it give?
Answer: The EC50 was 113 µM.

Question: Which EC50 does the source give for `CC1Cc2ccccc2N1C(=O)CSc1nnc(CNc2ccccc2)o1` (configuration not stated) [1-(2-Methyl-2,3-dihydro-indol-1-yl)-2-(5-phenylaminomethyl-[1,3,4]oxadiazol-2-ylsulfanyl)-ethanone] here?
Answer: Its EC50 is 0.137 µM.

Question: `S=C(NCc1ccccc1Cl)Nc1ccccc1Cl` [1-(2-chlorobenzyl)-3-(2-chlorophenyl)thiourea] was tested. Which EC50 did it give?
Answer: The EC50 was 5.74 µM.

Question: With `CSc1ccccc1N=C(S)Nc1ccc(S(N)(=O)=O)cc1` [1-(2-methylsulfanylphenyl)-3-(4-sulfamoylphenyl)thiourea] as the molecule, how does the EC50 read?
Answer: Its EC50 is 12.8 µM.

Question: With `C=CCn1c(Cc2cccs2)nnc1SCC(=O)c1ccc2ccccc2c1` [1-(2-naphthalenyl)-2-[[4-prop-2-enyl-5-(thiophen-2-ylmethyl)-1,2,4-triazol-3-yl]thio]ethanone] as the molecule, how does the EC50 read?
Answer: Its EC50 is 6.12 µM.

Question: With `O=C(CSc1nnc(-c2ccc(O)cc2)n1Cc1ccco1)N1CCc2ccccc2C1` [1-(3,4-Dihydro-1H-isoquinolin-2-yl)-2-[4-furan-2-ylmethyl-5-(4-hydroxy-phenyl)-4H-[1,2,4]triazol-3-ylsulfanyl]-ethanone] as the molecule, how does the EC50 read?
Answer: Its EC50 is 5.59 µM.

Question: Which EC50 does the source give for `O=C(CSc1nnc(CNc2ccccc2)o1)N1CCCc2ccccc21` [1-(3,4-Dihydro-2H-quinolin-1-yl)-2-(5-phenylaminomethyl-[1,3,4]oxadiazol-2-ylsulfanyl)-ethanone] here?
Answer: The EC50 was 1730 µM.

Question: `Cc1oc(-c2ccccc2)nc1C[S+]([O-])CC(=O)N1CCc2ccccc2C1` (configuration not stated) [1-(3,4-dihydro-1H-isoquinolin-2-yl)-2-[(5-methyl-2-phenyl-1,3-oxazol-4-yl)methylsulfinyl]ethanone] was tested. Which EC50 did it give?
Answer: Its EC50 is 3.68 µM.

Question: For `Cc1cccc(-c2nc(C[S+]([O-])CC(=O)N3CCc4ccccc4C3)c(C)o2)c1` (configuration not stated) [1-(3,4-dihydro-1H-isoquinolin-2-yl)-2-[[5-methyl-2-(3-methylphenyl)-1,3-oxazol-4-yl]methylsulfinyl]ethanone], which EC50 is on record?
Answer: The EC50 was 13.7 µM.

Question: Which EC50 does the source give for `Cn1cc(C(=O)C(=O)N2CCCc3ccccc32)c2ccccc21` [1-(3,4-dihydro-2H-quinolin-1-yl)-2-(1-methyl-3-indolyl)ethane-1,2-dione] here?
Answer: Its EC50 is 8.6 µM.

Question: For `O=C(CSc1ccc(-c2ccccc2)nn1)N1CCCc2ccccc21` [1-(3,4-dihydro-2H-quinolin-1-yl)-2-(6-phenylpyridazin-3-yl)sulfanyl-ethanone], which EC50 is on record?
Answer: Its EC50 is 13.5 µM.

Question: `S=C(NN=Cc1cccc2ccccc12)Nc1cccc(Cl)c1` [1-(3-chlorophenyl)-3-(1-naphthalenylmethylideneamino)thiourea] was tested. Which EC50 did it give?
Answer: Its EC50 is 8.29 µM.

Question: Which EC50 does the source give for `O=C(c1ccc(N2CCCCCC2)c([N+](=O)[O-])c1)N1CCc2ccccc21` [1-(4-azepan-1-yl-3-nitrobenzoyl)indoline] here?
Answer: Its EC50 is 7.56 µM.

Question: With `Cc1c(C(=O)NCCSCc2ccc(F)cc2)cnn1-c1ccc(Cl)cc1` [1-(4-chlorophenyl)-N-[2-[(4-fluorobenzyl)thio]ethyl]-5-methyl-pyrazole-4-carboxamide] as the molecule, how does the EC50 read?
Answer: The EC50 was 471 µM.

Question: Which EC50 does the source give for `O=C(CSc1nnc(Cc2ccccc2)o1)c1ccc(F)cc1` [1-(4-fluorophenyl)-2-[[5-(phenylmethyl)-1,3,4-oxadiazol-2-yl]sulfanyl]ethanone] here?
Answer: The EC50 was 2.86 µM.

Question: For `COc1ccc(N2C(=S)N=C(Nc3cccc(C)c3)C23CCCCC3)cc1` [1-(4-methoxyphenyl)-4-(3-methylanilino)-1,3-diazaspiro[4.5]dec-3-ene-2-thione], which EC50 is on record?
Answer: Its EC50 is 14.1 µM.

Question: How did the EC50 turn out when `Cc1ccc(S(=O)(=O)N2CCC(=O)N(C(COCc3ccccc3)Cc3ccccc3)CC2)cc1` (configuration not stated) [1-(4-methylphenyl)sulfonyl-4-(1-phenyl-3-phenylmethoxy-propan-2-yl)-1,4-diazepan-5-one] was run?
Answer: Its EC50 is 1.24 µM.

Question: For `S=C(NCc1cccnc1)Nc1ccc(Oc2ccccc2)cc1` [1-(4-phenoxyphenyl)-3-(3-pyridinylmethyl)thiourea], which EC50 is on record?
Answer: The EC50 was 1.19 µM.

Question: Which EC50 does the source give for `Cc1cccc(Nc2nnc(SCC(=O)c3ccc(Br)s3)s2)c1C` [1-(5-bromanylthiophen-2-yl)-2-[[5-[(2,3-dimethylphenyl)amino]-1,3,4-thiadiazol-2-yl]sulfanyl]ethanone] here?
Answer: The EC50 was 4.28 µM.

Question: With `Cc1ccc(Nc2nnc(SCC(=O)c3ccc(Br)s3)s2)c(C)c1` [1-(5-bromanylthiophen-2-yl)-2-[[5-[(2,4-dimethylphenyl)amino]-1,3,4-thiadiazol-2-yl]sulfanyl]ethanone] as the molecule, how does the EC50 read?
Answer: The EC50 was 1.22 µM.

Question: For `Cc1noc(C)c1S(=O)(=O)N1CCC(C(=O)N2CCN(c3ccc(F)cc3)CC2)CC1` [1-({1-[(3,5-dimethylisoxazol-4-yl)sulfonyl]piperidin-4-yl}carbonyl)-4-(4-fluorophenyl)piperazine], which EC50 is on record?
Answer: The EC50 was 23.1 µM.

Question: `O=S(=O)(NCc1ccccc1)c1ccc(Cl)c(S(=O)(=O)NCc2ccccc2)c1` [1-N,3-N-dibenzyl-4-chlorobenzene-1,3-disulfonamide] was tested. Which EC50 did it give?
Answer: The EC50 was 1.7 µM.

Question: For `Cc1nc2cc(C(F)(F)F)ccc2n1C1CCN(Cc2nnnn2Cc2ccc3c(c2)OCO3)CC1` [1-[1-(1-Benzo[1,3]dioxol-5-ylmethyl-1H-tetrazol-5-ylmethyl)-piperidin-4-yl]-2-methyl-5-trifluoromethyl-1H-benzoimidazole], which EC50 is on record?
Answer: Its EC50 is 3.28 µM.

Question: Which EC50 does the source give for `CC(C)(CN=C(S)NCCc1ccccc1)CN=C(S)NCCc1ccccc1` [1-[2,2-dimethyl-3-(2-phenylethylcarbamothioylamino)propyl]-3-(2-phenylethyl)thiourea] here?
Answer: The EC50 was 16.7 µM.

Question: How did the EC50 turn out when `CCOC(=O)c1cc2c(ccn2C)n1CC(=O)N1CCC(Cc2ccccc2)CC1` [1-[2-(4-Benzyl-piperidin-1-yl)-2-oxo-ethyl]-4-methyl-1,4-dihydro-pyrrolo[3,2-b]pyrrole-2-carboxylic acid ethyl ester] was run?
Answer: Its EC50 is 10.8 µM.

Question: How did the EC50 turn out when `Cc1ccc2oc(-c3ccc(C)c(NC(=S)NC(=O)c4cccs4)c3)nc2c1` [1-[2-Methyl-5-(5-methyl-benzooxazol-2-yl)-phenyl]-3-(thiophene-2-carbonyl)-thiourea] was run?
Answer: Its EC50 is 0.761 µM.

Same assay, conditions: inactive by the depositor's call

Question: How did the EC50 turn out when `S=c1nc(-c2ccc3c(c2)CCO3)cc[nH]1` was run?
Answer: The EC50 was 16.7 µM.

Question: Which EC50 does the source give for `Cc1[nH][nH]c(=O)c1C(c1ccc(-c2ccc(Cl)c(Cl)c2)o1)c1c(C)[nH][nH]c1=O` here?
Answer: Its EC50 is 130 µM.

Question: `Cc1ccc(C=NNC(=S)Nc2cccc(S(=O)(=O)N(C)C)c2)o1` was tested. Which EC50 did it give?
Answer: Its EC50 is 16.6 µM.

Question: Which EC50 does the source give for `O=C(CSc1nnc(CNc2ccccc2)o1)c1ccc2c(c1)OCCO2` [1-(2,3-Dihydro-benzo[1,4]dioxin-6-yl)-2-(5-phenylaminomethyl-[1,3,4]oxadiazol-2-ylsulfanyl)-ethanone] here?
Answer: The EC50 was 2.09 µM.

Question: How did the EC50 turn out when `S=C(Nc1ccccn1)Nc1ccccc1Cl` [1-(2-chlorophenyl)-3-(2-pyridinyl)thiourea] was run?
Answer: Its EC50 is 1.97 µM.

Question: How did the EC50 turn out when `Cc1nc(SCC(=O)N2CCc3ccccc3C2)c2c(C)c(C)sc2n1` [1-(3,4-Dihydro-1H-isoquinolin-2-yl)-2-(2,5,6-trimethyl-thieno[2,3-d]pyrimidin-4-ylsulfanyl)-ethanone] was run?
Answer: The EC50 was 14.7 µM.

Question: With `Cc1ccccc1-c1nc(CS(=O)(=O)CC(=O)N2CCc3ccccc3C2)c(C)o1` [1-(3,4-dihydro-1H-isoquinolin-2-yl)-2-[[5-methyl-2-(2-methylphenyl)-1,3-oxazol-4-yl]methylsulfonyl]ethanone] as the molecule, how does the EC50 read?
Answer: Its EC50 is 22.1 µM.

Question: How did the EC50 turn out when `Cc1ccc(C(=O)CSc2nnc(COc3cccc4cccnc34)o2)cc1` [1-(4-methylphenyl)-2-[[5-(8-quinolinyloxymethyl)-1,3,4-oxadiazol-2-yl]thio]ethanone] was run?
Answer: The EC50 was 8.12 µM.
